# Source: patent EP0073758B1, “TREATMENT OF INFLAMMATORY VIRAL INFECTIONS, ACNE, DERMATITIS AND ARTHRITIS CONDITIONS” (priority 1981, dated 1982)
# Experiments:
# [1] = test system: Herpes Labialis; format: in vivo, patients
# Protocol: In an informal clinical study 41 patients with symptoms of Herpes Labialis were treated with oral dosages of phenolphthalein. The patients were treated at different times over a period of about two months. The initial dosage was one hundred milligrams administered every 8 hours for the first day and every 12 hours thereafter. […] Of the 41 patients treated, 39 made complete recovery within two days without any noticeable development of the cold sore. The other two patients made complete recovery with no swelling or visible evidence of the cold sore remaining after three days. A control group of 24 patients with Herpes Labialis history were selected at random from clinical files as a control group. Of the 24 patients, 5 were excluded because of the total absence of early indications of infection. The other 19 patients were treated conventionally over a 10 day period. Only 4 experienced even partial relief from developing cold sores and 15 developed active cold sores and blisters which lasted up to 4 weeks.
# The results of this informal study indicate that phenolphthalein is a very effective drug for preventing and arresting the development of cold sores and blisters at the time of initial appearance in patients.
# [2] = oral dosages against canker sores; format: in vivo
# [3] = stated as well known; cited from earlier work
# [4] = test system: Herpes Simplex infections; test: oral dosages administered to victims of Herpes Simplex infections; format: in vivo
# [5] = ingested into the human body; rest excreted in the feces; cited from earlier work
# [6] = topical application in acne; format: in vivo; conditions: 500 milligrams in 57 g of carrier
# Description: In preparing topical applications for the treatment of external conditions, such as dermatitis and acne as well as arthritis, rheumatism, and related conditions, it is within the scope of the invention to formulate phenolphthalein with suitable carriers and bases to aid in the application to, or absorption into, the target or affected area. One group of carriers is the oil-based carriers for external application this group includes dimethyl sulfoxide (DMSO), petrolatum, mineral oil, and anhydrous lanolin. In most topical applications the concentration of the phenolphthalein in the carrier may vary widely. […] It is believed that a concentration of at least about 250 milligrams per 28 g of carrier will be effective.
# [7] = solubility in DMSO; format: physicochemical; conditions: per one milliliter DMSO; maximum solubility not determined
# Protocol: Topical applications were prepared for the treatment of the external conditions, deseases and symptoms of arthritis, rheumatism, and rheumatoid arthritis or similar conditions. Phenolphthalein was formulated with a topical carrier of dimethyl sulfoxide (DMSO) to aid in the application of phenolphthalein to, and its absorption into, the affected area for the relief of pain and the treatment of the area. It has been discovered that DMSO is an especially effective solvent for phenolphthalein. As little as one milliliter of liquid DMSO will dissolve two-hundred milligrams of phenolphthalein, or powders containing phenolphthalein. This factor coupled with the known ability of DMSO to penetrate organic tissue are believed to allow smaller dosages of phenolphthalein to be used in both oral and topical applications as well as in preparation of injectable solutions. For example the DMSO/phenol- phthalein solution can be formulated into topical carriers which should enhance the penetration of phenolphthalein into the skin, or ingested.
smiles,measurement,setting,value
"O=C1OC(c2ccc(O)cc2)(c2ccc(O)cc2)c2ccccc21 [phenolphthalein, 3,3 - Bis(p - hydroxyphenyl) - phthalide]",laxative effect,"[1]; human, in vivo, po",complaints related to the laxative effect
same,patients who made complete recovery within two days without any noticeable development of the cold sore,"[1]; of the 41 patients treated, oral, initially one hundred milligrams, later 30 milligrams, every 8 hours first day, every 12 hours thereafter",39
same,patients who made complete recovery with no swelling or visible evidence of the cold sore remaining after three days,"[1]; of the 41 patients treated, same oral regimen",two
same,follow-up observations: development of Herpes Labialis,[1]; the 41 patients treated,no development of Herpes Labialis
same,relief and cure of canker sores,[2],effective to relieve and cure canker sores within a matter of hours
same,solubility in water,[3],highly insoluble in water
same,"treatment of Herpes Simplex infections, including cold sores, fever blisters and Herpes Genitalis",[4],successfully administered
same,active drug in solution absorbed into the blood stream,[5],less than 15%
same,effect against acne,[6],effective against acne
same,amount dissolved by one milliliter of liquid DMSO,[7],two-hundred
